# Laboratory results published in PMC8784342, “Investigation of sugar binding kinetics of the E. coli sugar/H^+ symporter XylE using solid-supported membrane-based electrophysiology” (The Journal of Biological Chemistry, 2021).
# Several values for one entry are separate records, joined by “and”; a condition that tells them apart may be missing. Equal entries are not always repeated. Marks after values point to notes of the source that are not given here.
# Columns and labels:
# [1] = target: T1, D27N XylE (Escherichia coli, UniProt P0AGF4, D27N); experiment: SSM-based electrophysiology, transport-deficient mutant D27N XylE (PSS currents, electrogenic binding); type: biochemical
# T1 construct: made in house; host or cells: E. coli BL21 DE3
# Procedure: (§1) Reconstitution of purified proteins (2–20 mg/ml) was carried out with E. coli phospholipids (Avanti Polar Lipids, E. coli polar lipid extract). Preformed liposomes (0.2–2 ml, 10 mg/ml) were dissolved in 1% (w/v) n-octyl-β-D-glucoside, and the protein suspension was mixed on ice to a concentration of 0.2 mg protein/mg lipid (LPR 5).
# (§2) Wt XylE, wt FucP, and the mutant proteins were reconstituted using overnight incubation in 400 mg/ml BioBeads (SM-2 Adsorbent Media, Bio-Rad) at 4 °C. After reconstitution, the samples were diluted to 2.5 mg/ml lipid concentration, frozen in liquid nitrogen, and stored at −80 °C. For wt LacY and mutant proteins, this procedure was not successful. We, therefore, applied the previously established n-octyl-β-D-glucoside dilution method (1:100) ([69]).
# (§3) SSM measurements were performed as described ([20], [23]). After thawing the sample and sonication in a water bath, 30 μl of proteoliposomes (2.5 mg/ml lipid at LPR 5) was allowed to adsorb for 1 to 2 h to an octadecanethiol/phosphatidylcholine hybrid bilayer on a gold surface (the sensor).
# (§4) For measurements, a single solution exchange configuration ([23]) was employed that consisted in three phases of 0.5 s duration each: Flow of nonactivating solution (NA), activating solution (A), and nonactivating solution (NA). Only the activating solution contained the sugar. When pH dependence is determined, pH of NA and A solutions during one experiment are kept constant. Between experiments using different pH values, the sensor was incubated at the new pH for 3 min to equilibrate the intraliposomal pH.
# (§5) Instruments with different time resolution were used as required. […] Currents were recorded throughout the entire time and amplified with a current amplifier set to a gain of […] and a rise time of 10 ms (low time-resolution set up) or 3 ms (high time-resolution set up).
# (§6) All NA solutions were buffered in 100 mM KPi at a given pH value. NA solutions used with LacY contained 1 mM DTT in addition. A solutions were made from NA solutions by adding the respective sugar at a given concentration to induce the symport reaction. Sugar concentration jumps initiated sugar-proton symport, and charge transfer was measured by capacitive coupling. Therefore, only transient currents were recorded.
# (§7) Each dataset represented with error bars was generated by performing the same experiment on multiple sensors (n ≥ 3). Error bars represent standard deviations of the average value. When peak currents are averaged across sensors, datasets are normalized before averaging. When the protein catalyzes transport and PSS currents are negligible, the peak current of the transient represents a good approximation of the current generated by the steady-state symport activity of the transporter. In most cases, peak currents have been used to derive kinetic and thermodynamic parameters according to the equations given in Figure 2 (KM, Imax ∼ Vmax, Hill coefficient n), Figure 4 (KD and rate constants for sugar binding kon and release koff), and Figure 6 (pKa for proton binding and pKb for proton release). Reconstruction of transporter currents for analysis of biphasic currents has been performed as described previously ([70]). This is required when transport and PSS currents are observed at the same time.
# [2] = target: T2, Q175I/L297F XylE (Escherichia coli, UniProt P0AGF4, L297F/Q175I); experiment: biochemical
# T2 construct: made in house; host or cells: E. coli BL21 DE3
# Procedure: as §1
# as §2, with “For wt LacY and mutant proteins, this procedure was not successful.” left out
# as §3, §4, §5, §6, §7
# [3] = target: T1, D27N XylE; conditions: relative to D-xylose in wt XylE (100%); cited from earlier work
# [4] = target: T1, D27N XylE; conditions: cited from earlier work
# [5] = tested on: XylE; conditions: radioactively labeled sugars; read-out: KM, literature; cited from earlier work
# [6] = target: XylE; parameters: method as in PMID 23075985; conditions: read-out: KD, isothermal titration calorimetry; cited from earlier work
# [7] = target: T3, wt XylE (Escherichia coli, UniProt P0AGF4); conditions: cited from earlier work
# [8] = target: T3, wt XylE; experiment: biochemical; parameters: made in house; host or cells: E. coli BL21 DE3
# Procedure: as §1, §2, §3, §4, §5, §6, §7
# [9] = target: T3, wt XylE; parameters: made in house; host or cells: E. coli BL21 DE3; conditions: relative to D-xylose in wt XylE (100%); cited from earlier work
# T1 sequence (P0AGF4 whole entry D27N): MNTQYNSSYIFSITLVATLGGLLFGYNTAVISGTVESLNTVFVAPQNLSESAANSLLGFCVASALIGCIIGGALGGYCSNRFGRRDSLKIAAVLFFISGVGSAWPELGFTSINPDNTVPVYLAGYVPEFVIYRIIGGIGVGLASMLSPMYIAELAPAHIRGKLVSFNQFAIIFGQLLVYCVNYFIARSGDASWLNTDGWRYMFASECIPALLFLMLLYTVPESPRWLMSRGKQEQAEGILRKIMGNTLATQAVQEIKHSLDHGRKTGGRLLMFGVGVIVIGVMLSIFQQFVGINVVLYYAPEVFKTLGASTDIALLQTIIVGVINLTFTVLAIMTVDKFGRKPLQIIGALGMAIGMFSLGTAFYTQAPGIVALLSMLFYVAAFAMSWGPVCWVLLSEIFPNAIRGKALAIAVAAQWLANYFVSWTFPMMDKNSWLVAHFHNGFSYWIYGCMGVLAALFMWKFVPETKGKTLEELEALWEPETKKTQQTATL
# T2 sequence (P0AGF4 whole entry Q175I/L297F): as the sequence (P0AGF4 whole entry D27N) above, with N27D, Q175I, L297F counted along it
# T3 sequence (P0AGF4 whole entry): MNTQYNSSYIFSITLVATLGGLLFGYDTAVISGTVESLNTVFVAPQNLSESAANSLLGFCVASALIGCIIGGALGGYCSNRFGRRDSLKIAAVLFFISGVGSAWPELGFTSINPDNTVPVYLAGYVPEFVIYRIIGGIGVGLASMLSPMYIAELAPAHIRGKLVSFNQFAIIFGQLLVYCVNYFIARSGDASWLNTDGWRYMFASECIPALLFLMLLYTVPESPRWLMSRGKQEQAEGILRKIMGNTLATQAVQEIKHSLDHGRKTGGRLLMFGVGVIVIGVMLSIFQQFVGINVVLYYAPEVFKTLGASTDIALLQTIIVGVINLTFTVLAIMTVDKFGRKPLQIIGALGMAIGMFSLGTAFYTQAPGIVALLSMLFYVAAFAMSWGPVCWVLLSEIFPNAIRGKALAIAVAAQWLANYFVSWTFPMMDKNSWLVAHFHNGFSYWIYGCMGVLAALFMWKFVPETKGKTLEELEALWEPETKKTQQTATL
compound,measurement,setting,value
OC1OC[C@@H](O)[C@H](O)[C@H]1O (stereo partly drawn) [D-xylose],Kd,"[1]; KD (mM) mut, pH 7.6, hyperbolic fit of peak currents, in Table 3 headed EC50",1 ± 0.1 mM
same,Kd,"[1]; KD from fit of concentration-dependent kobs, pH 7.6",5.5 ± 2.1 mM
same,Imax (nA) slow component,[1]; pH 7.6,<0.05 nA
same,"Q (pC) Mut, transferred charge","[1]; pH 7.6, 30 mM substrate",6.8 ± 1.5 (pH 7.6) pC
same,IPeak (pA) fast component,"[1]; pH 7.6, saturating substrate",500 pA and 500 ± 100 pA
same,kobs (s^−1) mut,"[1]; saturating substrate (30 mM), kobs = 1/τ, monoexponential fit, limited by time resolution",300 ± 30 s⁻¹
same,EC50,"[2]; EC50 (mM) (KM for transport, slow component), pH 7.6",~1.5 mM
same,Imax slow component normalized to D-xylose transport in wt XylE (100%),[2]; pH 7.6,22%
same,Imax (nA) slow component,"[2]; pH 7.6, reconstructed transporter current",0.4 ± 0.1 nA
same,IPeak (pA) fast component,"[2]; pH 7.6, saturating substrate",520 ± 90 pA
same,pKa,"[2]; reconstructed transporter currents, acidic range",4.8 ± 0.1
same,Radioactive counterflow activity,[3],90%
same,activity in uptake assay,[4],< 1%
same,Km,[5],100 to 500 µM
same,Kd,[6],400 µM
same,Imax,"[7]; pH 7.6, main substrate",1.8 ± 0.5 nA
same,pKa,"[7]; pH-dependent peak currents, acidic range",4.6 ± 0.2
same,pKb1,"[7]; pH-dependent peak currents, alkaline range, double titration",~7.5
same,Km,"[7]; read-out: KM (mM) Michaelis–Menten equation, pH 7.6, main substrate, in Table 3 headed EC50",~1.5 mM
same,PSS current higher than that for D-glucose,[8]; independent of pH,165 pA
same,"Q (pC) wt, PSS transferred charge","[8]; pH 3.2, 30 mM substrate",4.0 ± 1.4 (pH 3.2) pC
same,Imax in percent of Imax of the main substrate (D-xylose),[8]; pH 7.6,100%
same,IPeak (pA) fast component,"[8]; pH 7.6, saturating substrate, transport current given as upper limit",<1800 pA
same,Radioactive counterflow activity,[9],100% ^a
